Tests used:
PTPRG = test: in vitro phosphatase activity (pNPP) on membranes from human primary monocytes; type: biochemical; conditions: orthovanadate treatment
Experimental: We first tested the biochemical activity of the fusion peptide by performing in vitro assays of phosphatase activity on purified membranes isolated from human primary monocytes compared to membranes isolated from human primary polymorphonuclear cells (PMNs). Human primary monocytes and polymorphonuclear (PMNs) cells were isolated from whole blood of healthy donors. Purity of monocyte preparation was evaluated by flow cytometry after staining with fluorescein isothiocyanate (FITC)-conjugated anti-CD14 antibody and was more than 95%. Isolated cells were kept at 37° C. in standard adhesion buffer (PBS, 1 mM CaCl2, 1 mM MgCl2, 10% FBS, pH 7.2) and used within 1 h.
The phosphatase activity in membrane fractions isolated from human monocytes and PMNs was assessed. […] Cells were then sonicated twice (6 sec, 15% W) and centrifuged at 2000 rpm for 10 minutes. The supernatants were collected and centrifuged at 28000 rpm for 60 minutes. After centrifugation, the supernatants were discarded, and the membrane pellets were dissolved in 20 mM tris pH 7.4. Equal amount of membrane fractions were added to pNPP buffer containing 20 mM tris, 10 mM DTT and 2 mM pNPP. Following, DMSO and peptides were added. After 30 minutes of incubation, levels of de-phosphorylation, in presence or absence of orthovanadate, were measured at 405 nm by a plate reader. Values are absorbance at 405 nn shown as percent fold increase over the blank; mean values of three experiments are shown. *p<0.001 vs vehicle (DMSO).

human primary monocytes [1] = test: static adhesion of fMLP-stimulated monocytes to ICAM-1; type: cell-based; design: unit not given here; conditions: 0.075 micromolar PTPX, 30 minutes; 50 nM fMLP; Control 212.8
human primary monocytes [2] = test: as above; type: cell-based; design: adherent monocytes on ICAM-1: unit not given here
Experimental: We investigated the functional effect of PTPRG activation on integrin activation and mediated adhesion by chemoattractants in human primary monocytes and PMNs in a static and flow adhesion assays. Briefly, human primary monocytes or polymorphonuclear cells were suspended at 5×10^6/ml in standard adhesion buffer. Adhesion assays were performed on 18-well glass slides coated with 1 mg/ml human fibrinogen or with 1 μg/ml human ICAM-1 in PBS; 20 μl of cell suspension were added to the coated wells and stimulated for 1 min at 37° C. with 5 μl of fMLP, 0.05 μM final concentration. After rapid washing, adherent cells were fixed in ice-cold 1.5% glutaraldehyde in PBS, and still images of adherent cells in 0.2 mm^2 fields were acquired al 20× phase contrast magnification, NA 0.40, with a charge-coupled device camera (ICD-42B; Ikegami) connected to an inverted microscope (IX50; Olympus). Image acquisition and computer-assisted enumeration of adherent cells were performed with ImageJ (National Institute of Health).
We then investigated the functional effect of TAT-ICD on integrin activation and mediated adhesion by chemoattractants. Static adhesion assays were performed as described in Example 2. […] Data are mean number of adherent cells in 5 experiments in triplicate.
To evaluate whether JAK2 mediates chemoattractant-induced adhesion of human monocytes to beta-2 integrin substrates human monocytes were treated control buffer or P1 or with the three JAK inhibitors. Briefly, human monocytes were treated with buffer (CTRL=control), or 40 μM P1 or P1-TKIP peptides, 100 μM AG490 or 200 μM WHI-P154 for 1 hour at 37° C. and stimulated with 50 nM fMLP for 60 sec.; data are mean and standard deviation (SD) of 6 experiments in triplicate.
Human primary monocytes were isolated from buffy coats from healthy donors and pre-incubated for 30 minutes at room temperature with our without 0.075 micromolar PTPX. Standard adhesion assays on ICAM-1 coated glass slides. Cell suspensions were added to the coated wells for 1 minute, stimulated for 1 minute at 37° C. with […] fMLP. Non-adherent cells were washed away and adherent cells were fixed in ice-cold 1.5% glutaraldehyde in PBS and adherent cells were counted using computer assisted automatic quantification. Data are from a representative experiment and are the mean and standard deviation of 24 measurements per condition (Table 35).

JAK2 = target: T1, JAK2 (Homo sapiens, UniProt O60674); test: phospho-JAK2 Western Blot on monocytes; type: cell-based; conditions: monocytes, Resting 20.2
T1 construct: endogenous in cells; host or cells: human primary monocytes
Description: (§1) JAK2 regulation by PTPRG as assessed through the high-throughput phospho-proteomics analysis evidenced that PTPRG activation (Example 4, Table 9 and 10) provides a useful example of the exploitation of this analysis system for identification of targets and unexpected indications/uses for known and novel agents that regulate the phoshoproteome. […] Furthermore, the capability of fMLP to trigger JAKs activation has never been observed. The results described in Example 4 unexpectedly implicate JAK2 de-phosphorylation by PTPRG as playing a role in the anti-adhesive role of PTPRG on monocytes. To test this system-generated hypothesis we first set out to define the role of JAK2 in fMLP-triggered rapid adhesion in monocytes. Time course experiments, either performed with ELISA assay or Western Blot. Briefly, purified human monocytes were treated with buffer (resting) or with 50 nM fMLP for the indicated times (Table 12), and the phosphorylation was assessed by p-Jak2 elisa and Western Blot analysis. The JAK2 activation was determined with Elisa Kit JAK2 (pYpY1007/1008) (Invitrogen). Briefly, cells were stimulated with agonist and lysed following manufacturer's protocol; levels of phospho-JAK2 were quantified (absorbance at 450 nm) with a micro-well plate reader (Victor™ X5 Multilabel Plate Reader, Perkin Elmer). For Western blot analysis, cells were lysed in ice-cold 1% Nonidet P-40 buffer, containing phosphatase inhibitors and complete protease inhibitor cocktail (Roche). Total cell lysates were quantified by Bradford assay (Bio-Rad). Equal amounts of total lysates or of isolated membranes (as described in Example 1) were subjected to 10% SDS-PAGE and then blotted. After incubation with anti-PTPRG, anti gp91^Phox, anti phospho-JAK2, anti JAK2 and HRP-linked secondary antibodies (GE Healthcare), immunoreactive bands were visualized by ECL detection (EMD Millipore). Intensities of band signals were quantified by densitometric analysis (Quantity One, Bio-Rad) by using ImageQuant Las4000. Data are mean value of three experiments; the relative ratio of the band intensity of phosphor-JAK2 was normalized to the level of JAK2 band intensities.
To evaluate whether JAK2 mediates fMLP-triggered rapid adhesion in human monocytes, we tested the capability of three JAK inhibitors, AG490, WHI-P154 and P1-TKIP peptide, to block adhesion triggering. Briefly, Monocytes were treated with buffer (resting and Control=CTRL), 100 μM AG490, 40 μM P1 or P1-TKIP peptides, or 200 μM WHI-P154 for 1 hour at 37° C. and stimulated with 50 nM fMLP for 180 sec. Cell lysates were probed with anti phospho-JAK2 and with anti JAK2. Western Blot immuoreactive band quantification; the relative ratio of the band intensity of phospho-JAK2 was normalized to the level of JAK2 band intensities; mean values of three experiments (Table 13).
The impact of TAT-ICD and P1-WD on JAK2 activation by chemoattractants was also evaluated by Western Blot analysis. Briefly, monocytes were treated with buffer (Resting, CTRL), 0.5 uM TAT-ICD, 50 μM TAT peptide, 50 μM P1-WD, P1 or P1-WD scrambled peptides for 1 hour at 37° C. and stimulated with 50 nM fMLP for 180 sec (the resting cells were not stimulated with fMLP). Total lysates were probed with anti phospho-JAK2 or with anti JAK. Western Blot immunoreactive bands were quantified and the relative ratio of the band intensity of phospho-JAK2 was normalized to the level of JAK2 band intensities; data are mean value and standard deviation of three experiments (Table 19).

JAK2 (pYpY1007/1008) = test: p-JAK2 ELISA on monocytes; type: cell-based, human; conditions: monocytes, Resting 100.0, in % (unit assumed)
Description: as §1
Briefly, p-JAK2 ELISA assay on human monocytes treated with buffer (CTRL=control), 50 μM P1-WD, P1 or P1-WD scrambled peptides (Table 17), or with buffer (CTRL=control), 0.5 uM TAT-ICD or 50 μM TAT peptide (Table 18) for 1 hour at 37° C. and stimulated with 50 nM fMLP for 90 sec. Shown are percentages of fold increases over the control; mean values of 3 experiments in triplicate.

T1 sequence (O60674 whole entry): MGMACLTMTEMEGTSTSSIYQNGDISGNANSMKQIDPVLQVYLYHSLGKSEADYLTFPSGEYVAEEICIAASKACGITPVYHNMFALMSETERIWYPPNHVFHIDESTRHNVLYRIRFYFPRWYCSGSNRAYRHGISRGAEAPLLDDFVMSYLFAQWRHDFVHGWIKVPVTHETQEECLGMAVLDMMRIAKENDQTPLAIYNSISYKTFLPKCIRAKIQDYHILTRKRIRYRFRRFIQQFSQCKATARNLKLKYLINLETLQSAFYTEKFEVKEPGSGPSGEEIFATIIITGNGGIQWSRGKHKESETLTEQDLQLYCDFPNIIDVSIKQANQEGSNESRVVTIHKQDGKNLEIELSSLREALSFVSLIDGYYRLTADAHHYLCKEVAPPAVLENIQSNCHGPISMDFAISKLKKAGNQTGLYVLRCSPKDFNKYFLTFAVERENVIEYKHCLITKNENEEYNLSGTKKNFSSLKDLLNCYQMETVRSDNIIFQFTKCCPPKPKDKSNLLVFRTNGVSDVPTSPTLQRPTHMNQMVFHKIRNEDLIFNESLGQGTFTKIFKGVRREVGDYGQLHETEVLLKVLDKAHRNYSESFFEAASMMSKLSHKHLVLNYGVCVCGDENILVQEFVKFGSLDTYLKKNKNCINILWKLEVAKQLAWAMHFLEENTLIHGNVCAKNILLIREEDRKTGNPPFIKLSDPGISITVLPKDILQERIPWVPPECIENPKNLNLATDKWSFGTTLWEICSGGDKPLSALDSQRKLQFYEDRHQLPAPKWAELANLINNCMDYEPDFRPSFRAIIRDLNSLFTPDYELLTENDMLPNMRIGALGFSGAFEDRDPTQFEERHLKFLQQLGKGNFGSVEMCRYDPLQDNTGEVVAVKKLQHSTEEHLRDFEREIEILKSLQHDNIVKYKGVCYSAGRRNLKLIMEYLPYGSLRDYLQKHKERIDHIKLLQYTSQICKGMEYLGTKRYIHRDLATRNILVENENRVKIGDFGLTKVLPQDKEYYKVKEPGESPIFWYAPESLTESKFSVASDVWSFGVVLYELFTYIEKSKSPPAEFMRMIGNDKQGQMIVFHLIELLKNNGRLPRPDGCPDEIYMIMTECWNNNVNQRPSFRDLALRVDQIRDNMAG

## [Na+].[Na+].[Na+].[O]=[V]([O-])([O-])[O-] [Orthovanadate, Na3VO4, reference compound]
PTPRG
  phosphatase activity elicited in membranes: completely prevented phosphatase activity

## PTPx: external domain of PTPRG, amino acids 20-736, produced with a histidine tag
Human primary monocytes [1]
  adherent monocytes on ICAM-1: 32.7
Human primary monocytes [2]; 0.075 micromolar PTPX, 30 minutes, No Agonist, Control 22.2
  adherent monocytes on ICAM-1: 3.4

## fMLP
JAK2; 50 nM fMLP 90″
  phospho-JAK2 band intensity normalized to JAK2, Western Blot: 37.8
JAK2; 50 nM fMLP 120″
  phospho-JAK2 band intensity normalized to JAK2, Western Blot: 46.7
JAK2; 50 nM fMLP 180″
  phospho-JAK2 band intensity normalized to JAK2, Western Blot: 58.5
JAK2 (pYpY1007/1008); 50 nM fMLP 90″
  phospho-JAK2 level, ELISA: 107.3
JAK2 (pYpY1007/1008); 50 nM fMLP 120″
  phospho-JAK2 level, ELISA: 128.3
JAK2 (pYpY1007/1008); 50 nM fMLP 180″
  phospho-JAK2 level, ELISA: 155.7
Human primary monocytes [2]; stimulation with fMLP vs no agonist
  increase in monocyte adhesion to ICAM-1: approximately 10 fold
